{"source": "patent US20090247646A1", "about": "“USE OF RESVERATROL AND DERIVATIVES THEREOF FOR PROMOTING THE WELLNESS STATE IN MAMMALS” (priority 2006, published 2009)", "system": "gene expression in heart tissue", "assay": "Genome-wide gene expression in heart tissue of old mice fed a resveratrol-supplemented diet (Affymetrix Mouse Genome 430 2.0 array)", "assay_type": "in vivo", "key": {"[1]": {"details": "ADP-ribosyltransferase 1, Genebank ID NM_009710"}, "[2]": {"details": "Bcl2-associated athanogene 3, Genebank ID NM_013863"}, "[3]": {"details": "DnaJ (Hsp40) homolog, subfamily A, member 3, Genebank ID AK004575"}, "[4]": {"details": "DnaJ (Hsp40) homolog, subfamily A, member 4, Genebank ID NM_021422"}, "[5]": {"details": "DnaJ (Hsp40) homolog, subfamily B, member 5, Genebank ID AI664344"}, "[6]": {"details": "DnaJ (Hsp40) homolog, subfamily B, member 10, Genebank ID NM_020266"}, "[7]": {"details": "F-box only protein 25, Genebank ID NM_025785"}, "[8]": {"details": "F-box only protein 32, Genebank ID AF441120"}, "[9]": {"details": "F-box protein 30, Genebank ID AK006369"}, "[10]": {"details": "FK506 binding protein 7, Genebank ID NM_010222"}, "[11]": {"details": "G protein-coupled receptor kinase 5, Genebank ID BC019379"}, "[12]": {"details": "Hbs1-like (S. cerevisiae), Genebank ID AK012856"}, "[13]": {"details": "Mus musculus similar to heart alpha-kinase (LOC381181), mRNA, Genebank ID AY044451"}, "[14]": {"details": "Mus musculus transcribed sequences, Genebank ID AK004331"}, "[15]": {"details": "No description found, Genebank ID BG976607"}, "[16]": {"details": "O-linked N-acetylglucosamine (GlcNAc) transferase (UDP-N-acetylglucosamine:polypeptide-N-acetylglucosaminyl transferase), Genebank ID BG065325"}, "[17]": {"details": "PTEN induced putative kinase 1, Genebank ID AF316872"}, "[18]": {"details": "Stam binding protein, Genebank ID AK019907"}, "[19]": {"details": "acid phosphatase 1, soluble, Genebank ID AW554436"}}, "data": [{"smiles": "Oc1ccc(/C=C/c2cc(O)cc(O)c2)cc1", "note": "[resveratrol, 3,4′,5-Trihydroxy-trans-stilbene]", "values": [{"measurement": "Effect of resveratrol on changeing gene expression from old to young profile", "setting": "1448825_at pyruvate dehydrogenase kinase, isoenzyme 2", "result": ">100", "unit": "%"}, {"measurement": "Effect of resveratrol on changeing gene expression from old to young profile", "setting": "1448938_at replication protein A3", "result": ">100", "unit": "%"}, {"measurement": "Effect of resveratrol on changeing gene expression from old to young profile", "setting": "1449116_a_at deoxythymidylate kinase", "result": ">100", "unit": "%"}, {"measurement": "Effect of resveratrol on changeing gene expression from old to young profile", "setting": "1449334_at tissue inhibitor of metalloproteinase 3", "result": ">100", "unit": "%"}, {"measurement": "Effect of resveratrol on changeing gene expression from old to young profile", "setting": "1450008_a_at catenin beta", "result": ">100", "unit": "%"}, {"measurement": "Effect of resveratrol on changeing gene expression from old to young profile", "setting": "1450048_a_at vacuolar protein sorting 33B (yeast) [BLAST]", "result": ">100", "unit": "%"}, {"measurement": "Effect of resveratrol on changeing gene expression from old to young profile", "setting": "1450634_at ATPase, H+ transporting, V1 subunit A, isoform 1", "result": ">100", "unit": "%"}, {"measurement": "Effect of resveratrol on changeing gene expression from old to young profile", "setting": "1450720_at acid phosphatase 1, soluble", "result": ">100", "unit": "%"}, {"measurement": "Effect of resveratrol on changeing gene expression from old to young profile", "setting": "1450899_at neural precursor cell expressed, developmentally down-regulated gene 1", "result": ">100", "unit": "%"}, {"measurement": "Effect of resveratrol on changeing gene expression from old to young profile", "setting": "1451012_a_at cold shock domain protein A", "result": ">100", "unit": "%"}, {"measurement": "Effect of resveratrol on changeing gene expression from old to young profile", "setting": "1451148_at PTEN induced putative kinase 1", "result": ">100", "unit": "%"}, {"measurement": "Effect of resveratrol on changeing gene expression from old to young profile", "setting": "1451249_at DNA segment, Chr 8, ERATO Doi 812, expressed", "result": ">100", "unit": "%"}, {"measurement": "Effect of resveratrol on changeing gene expression from old to young profile", "setting": "1452066_a_at Nedd4 family interacting protein 2", "result": ">100", "unit": "%"}, {"measurement": "Effect of resveratrol on changeing gene expression from old to young profile", "setting": "1452767_at ribosome binding protein 1", "result": ">100", "unit": "%"}, {"measurement": "Effect of resveratrol on changeing gene expression from old to young profile", "setting": "1452843_at interleukin 6 signal transducer", "result": ">100", "unit": "%"}, {"measurement": "Effect of resveratrol on changeing gene expression from old to young profile", "setting": "1453124_at transportin 3", "result": ">100", "unit": "%"}, {"measurement": "Effect of resveratrol on changeing gene expression from old to young profile", "setting": "1453129_a_at regulator of G-protein signaling 12", "result": ">100", "unit": "%"}, {"measurement": "Effect of resveratrol on changeing gene expression from old to young profile", "setting": "1454811_a_at tumor differentially expressed 2", "result": ">100", "unit": "%"}, {"measurement": "Effect of resveratrol on changeing gene expression from old to young profile", "setting": "1454837_at ceroid-lipofuscinosis, neuronal 6", "result": ">100", "unit": "%"}, {"measurement": "Effect of resveratrol on changeing gene expression from old to young profile", "setting": "1454848_at protein phosphatase 1, regulatory (inhibitor) subunit 12C [BLAST]", "result": ">100", "unit": "%"}, {"measurement": "Effect of resveratrol on changeing gene expression from old to young profile", "setting": "1454974_at syntaxin 8", "result": ">100", "unit": "%"}, {"measurement": "Effect of resveratrol on changeing gene expression from old to young profile", "setting": "1455182_at kinesin family member 1B", "result": ">100", "unit": "%"}, {"measurement": "Effect of resveratrol on changeing gene expression from old to young profile", "setting": "1455506_at Mus musculus transcribed sequences", "result": ">100", "unit": "%"}, {"measurement": "Effect of resveratrol on changeing gene expression from old to young profile", "setting": "1455702_at WD repeat domain 22", "result": ">100", "unit": "%"}, {"measurement": "Effect of resveratrol on changeing gene expression from old to young profile", "setting": "1460028_at Mus musculus transcribed sequences", "result": ">100", "unit": "%"}, {"measurement": "Effect of resveratrol on changeing gene expression from old to young profile", "setting": "1460174_at dexamethasone-induced transcript", "result": ">100", "unit": "%"}, {"measurement": "Effect of resveratrol on changeing gene expression from old to young profile", "setting": "1460199_a_at platelet-activating factor acetylhydrolase, isoform 1b, beta1 subunit", "result": ">100", "unit": "%"}, {"measurement": "% of res effect", "setting": "[1]", "result": 108.0103, "unit": "%"}, {"measurement": "Median RES", "setting": "[1]", "result": 87939}, {"measurement": "% of res effect", "setting": "[2]", "result": 131.9726, "unit": "%"}, {"measurement": "Median RES", "setting": "[2]", "result": 67398}, {"measurement": "% of res effect", "setting": "[3]", "result": 67.85, "unit": "%"}, {"measurement": "Median RES", "setting": "[3]", "result": 30553}, {"measurement": "% of res effect", "setting": "[4]", "result": 61.28, "unit": "%"}, {"measurement": "Median RES", "setting": "[4]", "result": 20850}, {"measurement": "% of res effect", "setting": "[5]", "result": 157.0689, "unit": "%"}, {"measurement": "Median RES", "setting": "[5]", "result": 17969}, {"measurement": "% of res effect", "setting": "[6]", "result": 124.1691, "unit": "%"}, {"measurement": "Median RES", "setting": "[6]", "result": 29661}, {"measurement": "number of genes changed by resveratrol", "setting": "Effect 60-70%", "result": 39}, {"measurement": "number of genes changed by resveratrol", "setting": "Effect 70-80%", "result": 48}, {"measurement": "number of genes changed by resveratrol", "setting": "Effect 80-90%", "result": 52}, {"measurement": "number of genes changed by resveratrol", "setting": "Effect 90-100%", "result": 62}, {"measurement": "number of genes changed by resveratrol", "setting": "Effect <60%", "result": 44}, {"measurement": "number of genes changed by resveratrol", "setting": "Effect >100% (expression in resveratrol-fed old mice as percentage of untreated young mice)", "result": 340}, {"measurement": "% of res effect", "setting": "[7]", "result": 80.27, "unit": "%"}, {"measurement": "Median RES", "setting": "[7]", "result": 11530}, {"measurement": "% of res effect", "setting": "[8]", "result": 104.0857, "unit": "%"}, {"measurement": "Median RES", "setting": "[8]", "result": 35761}, {"measurement": "% of res effect", "setting": "[9]", "result": 58.67, "unit": "%"}, {"measurement": "Median RES", "setting": "[9]", "result": 6641}, {"measurement": "% of res effect", "setting": "[10]", "result": 196.8163, "unit": "%"}, {"measurement": "Median RES", "setting": "[10]", "result": 33928}, {"measurement": "% of res effect", "setting": "[11]", "result": 80.42, "unit": "%"}, {"measurement": "Median RES", "setting": "[11]", "result": 37493}, {"measurement": "% of res effect", "setting": "[12]", "result": 74.36, "unit": "%"}, {"measurement": "Median RES", "setting": "[12]", "result": 9115}, {"measurement": "% of res effect", "setting": "[13]", "result": 190.8585, "unit": "%"}, {"measurement": "Median RES", "setting": "[13]", "result": 21847}, {"measurement": "% of res effect", "setting": "[14]", "result": 105.9, "unit": "%"}, {"measurement": "Median RES", "setting": "[14]", "result": 38260}, {"measurement": "% of res effect", "setting": "[15]", "result": 69.74, "unit": "%"}, {"measurement": "Median RES", "setting": "[15]", "result": 9370}, {"measurement": "% of res effect", "setting": "[16]", "result": 125.3946, "unit": "%"}, {"measurement": "Median RES", "setting": "[16]", "result": 2989}, {"measurement": "% of res effect", "setting": "[17]", "result": 147.4853, "unit": "%"}, {"measurement": "Median RES", "setting": "[17]", "result": 116921}, {"measurement": "% of res effect", "setting": "[18]", "result": 230.3846, "unit": "%"}, {"measurement": "Median RES", "setting": "[18]", "result": 13590}, {"measurement": "number of genes changed by resveratrol", "setting": "Sum", "result": 585}, {"measurement": "% of res effect", "setting": "[19]", "result": 349.7466, "unit": "%"}, {"measurement": "Median RES", "setting": "[19]", "result": 34652}, {"measurement": "number of genes that resembled or exceeded the expression level of the young group", "setting": "among genes changed by resveratrol treatment, heart", "result": 342}]}]}
